Assay results published in ChEMBL document CHEMBL1131909, “Synthesis and biological activities of position one and three transposed analogs of the opioid peptide YKFA” (Bioorg Med Chem Lett, 1999).

Columns and labels:
Mu-type opioid receptor [1] = target: T1, Mu-type opioid receptor (Cavia porcellus, UniProt P97266); experiment: Compound was tested for moderate potency against mu opioid receptor in guinea pig ileum; format: tissue-based
[2] = target: Delta-type opioid receptor (Mus musculus, UniProt P32300); experiment: In vitro delta opioid activity was determined by its ability to inhibit the electrically induced contractions of smooth muscle preparations in mouse vas deferens (MVD); format: functional, tissue-based
Mu-type opioid receptor [3] = target: T1, Mu-type opioid receptor; experiment: In vitro mu opioid activity was determined by its ability to inhibit the electrically induced contractions of smooth muscle preparations in guinea pig ileum (GPI); format: functional, tissue-based
Mu-type opioid receptor [4] = target: Mu-type opioid receptor (Homo sapiens, UniProt P35372); experiment: Compound was tested for binding affinity against mu opioid receptor binding assay
Mu-type opioid receptor [5] = target: T1, Mu-type opioid receptor; experiment: Compound was tested for its ability to activate mu opioid receptor in GPI bioassay

T1 sequence (P97266 whole entry): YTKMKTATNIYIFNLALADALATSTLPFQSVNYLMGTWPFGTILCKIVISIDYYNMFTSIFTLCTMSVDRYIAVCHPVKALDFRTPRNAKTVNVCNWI
Sequence of Delta-type opioid receptor (P32300 whole entry): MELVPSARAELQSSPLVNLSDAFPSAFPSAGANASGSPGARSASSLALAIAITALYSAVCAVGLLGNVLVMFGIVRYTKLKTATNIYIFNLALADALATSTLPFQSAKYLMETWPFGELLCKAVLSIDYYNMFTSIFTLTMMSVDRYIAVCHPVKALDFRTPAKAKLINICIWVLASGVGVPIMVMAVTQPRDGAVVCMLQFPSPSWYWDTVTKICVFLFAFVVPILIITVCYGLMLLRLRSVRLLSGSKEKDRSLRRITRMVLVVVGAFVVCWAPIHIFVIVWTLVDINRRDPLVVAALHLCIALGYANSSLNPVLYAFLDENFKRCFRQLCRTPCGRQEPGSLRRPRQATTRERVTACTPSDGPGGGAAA
Sequence of Mu-type opioid receptor (Homo sapiens, UniProt P35372) (P35372 whole entry): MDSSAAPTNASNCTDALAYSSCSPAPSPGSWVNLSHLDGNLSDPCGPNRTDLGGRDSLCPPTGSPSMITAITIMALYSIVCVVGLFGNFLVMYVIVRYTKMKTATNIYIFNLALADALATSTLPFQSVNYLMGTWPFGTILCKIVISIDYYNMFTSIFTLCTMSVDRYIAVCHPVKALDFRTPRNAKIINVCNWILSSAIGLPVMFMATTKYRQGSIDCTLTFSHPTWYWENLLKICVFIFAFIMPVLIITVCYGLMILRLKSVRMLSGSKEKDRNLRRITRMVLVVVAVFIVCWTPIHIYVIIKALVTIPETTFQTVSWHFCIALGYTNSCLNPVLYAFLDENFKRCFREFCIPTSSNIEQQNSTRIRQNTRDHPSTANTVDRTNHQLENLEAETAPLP

Row | Structure (SMILES) | IC50 [2] | IC50 (Mu-type opioid receptor [3]) | also measured
1 | NC(=O)[C@H]1CSSC[C@@H](NC(=O)[C@@H](N)Cc2ccccc2)C(=O)NCC(=O)N[C@@H](Cc2ccc([N+](=O)[O-])cc2)C(=O)N1 |  |  | IC50 (Mu-type opioid receptor [1]): 13 nM
2 | N[C@@H](Cc1ccccc1)C(=O)N[C@@H]1CCCCNC(=O)[C@H](Cc2cc3ccccc3[nH]2)NC(=O)[C@H](Cc2ccc(O)cc2)NC1=O | 228 nM | 17.7 nM | 
3 | N[C@H](Cc1ccccc1)C(=O)N[C@@H]1CCCCNC(=O)[C@H](Cc2cc3ccccc3[nH]2)NC(=O)[C@H](Cc2ccc(O)cc2)NC1=O | 8130 nM | 627 nM | 
4 | CC1(C)SSC[C@@H](NC(=O)[C@@H](N)Cc2ccccc2)C(=O)N[C@@H](Cc2ccccc2)C(=O)N[C@H]1C(N)=O |  |  | Ki (Mu-type opioid receptor [4]): 13.6 nM; IC50 (Mu-type opioid receptor [5]): 9.1 nM
5 | CC1(C)SSC[C@@H](NC(=O)[C@@H](N)Cc2ccc(O)cc2)C(=O)N[C@@H](Cc2ccccc2)C(=O)N[C@H]1C(N)=O |  |  | Ki (Mu-type opioid receptor [4]): 0.29 nM
6 | NC(=O)[C@H]1CSSC[C@@H](NC(=O)[C@@H](N)Cc2ccccc2)C(=O)NCC(=O)N[C@@H](Cc2ccccc2)C(=O)N1 |  |  | IC50 (Mu-type opioid receptor [1]): 42 nM
7 | CC1NC(=O)[C@H](Cc2ccc(O)cc2)NC(=O)[C@H](NC(=O)[C@@H](N)Cc2ccccc2)CCCCNC1=O (single isomer, unassigned) | 367 nM | 30.4 nM | 
8 | CC1NC(=O)[C@H](Cc2ccc(O)cc2)NC(=O)[C@H](NC(=O)[C@H](N)Cc2ccccc2)CCCCNC1=O (single isomer, unassigned) | 9330 nM | 1830 nM | 
9 | CC1NC(=O)[C@H](Cc2ccccc2)NC(=O)[C@H](NC(=O)[C@@H](N)Cc2ccc(O)cc2)CCCCNC1=O (single isomer, unassigned) | 0.54 nM | 0.11 nM | 
